# From patent US4103028A, “Complement inhibitors” (American Cyanamid Company, priority 1977, dated 1978)
# Where a name gives a salt, the structure may show the parent alone.
# Experiments:
# [1] = system: Forssman vasculitis in guinea pigs; assay: Forssman Vasculitis Test; parameters: species or system guinea pig; details: In vivo, inhibition of combined index of lesion diameter, edema and hemorrhage, prior intraperitoneal injection at 200 mg/kg unless otherwise stated
# Description: (§1) This test measures the ability of activated […] in the presence of C4 and appropriate dilutions of the test compound. An active inhibitor protects C2 from C1 and C4; (ii) Test, Code 035 (C3-C9 inhibitor) -- This test determines the ability of the late components of human complement (C3-C9) to lyse EAC 142 in the presence of appropriate dilutions of the test compound. An active inhibitor protects EAC 142 from lysis by human C3-C9; (iii) Test, Code 036 (C-Shunt inhibitor) -- In this test human erythrocytes rendered fragile are lysed in autologous serum via the shunt pathway activated by cobra venom factor in the presence of appropriate dilutions of the test compound. Inhibition of the shunt pathway results in failure of lysis; (iv) Forssman Vasculitis Test -- Here, the well known complement dependent lesion, Forssman vascultitis, is produced in guinea pigs by intradermal injection of rabbit anti-Forssman antiserum. The lesion is measured in terms of diameter, edema and hemorrhage and the extent to which a combined index of these is inhibited by prior intraperitoneal injection of the test compound at 200 mg/kg is then reported, unless otherwise stated; (v) Forssman Shock Test -- Lethal shock is produced in guinea pigs by an i.v. injection of anti-Forssman antiserum and the harmonic mean death time of treated guinea pigs is compared with that of simultaneous controls; (vi) Complement Level Reduction Test -- In this test, the above dosed quinea pigs, or others, are bled for serum and the complement level is determined in undiluted serum by the capillary tube method of U.S. Pat. No. 3,876,376 and compared to undosed control guinea pigs; and (vii) Cap 50 Test -- Here, appropriate amounts of the test compound are added to a pool of guinea pig serum in vitro, after which the undiluted serum capillary tube assay referred to above is run. The concentration of compound inhibiting 50% is reported.
# [2] = system: complement level in undiluted serum; assay: Complement Level Reduction Test; parameters: species or system guinea pig; details: In vivo, dosed guinea pigs bled for serum; capillary tube method, compared to undosed control guinea pigs
# Description: as §1
# shunt pathway = assay: Test, Code 036 (C-Shunt inhibitor), lysis of fragile human erythrocytes in autologous serum, cobra venom factor; assay type: biochemical; details: In vitro; well number of a two-fold serial dilution assay, higher well number indicates higher activity; NEG = negative
# Description: as §1
# [3] = system: late components of human complement (C3-C9); assay: Test, Code 035 (C3-C9 inhibitor), lysis of EAC 142; assay type: biochemical; details: In vitro; well number of a two-fold serial dilution assay, higher well number indicates higher activity; NEG = negative
# Description: as §1
# C1 = molecular target: T1, C1 (Homo sapiens, UniProt P09871); assay: Test, Code 026 (C1 inhibitor), serial dilution assay; assay type: biochemical; details: In vitro; well number of a two-fold serial dilution assay, higher well number indicates higher activity; NEG = negative
# T1 sequence (P09871 16-437 limits assumed): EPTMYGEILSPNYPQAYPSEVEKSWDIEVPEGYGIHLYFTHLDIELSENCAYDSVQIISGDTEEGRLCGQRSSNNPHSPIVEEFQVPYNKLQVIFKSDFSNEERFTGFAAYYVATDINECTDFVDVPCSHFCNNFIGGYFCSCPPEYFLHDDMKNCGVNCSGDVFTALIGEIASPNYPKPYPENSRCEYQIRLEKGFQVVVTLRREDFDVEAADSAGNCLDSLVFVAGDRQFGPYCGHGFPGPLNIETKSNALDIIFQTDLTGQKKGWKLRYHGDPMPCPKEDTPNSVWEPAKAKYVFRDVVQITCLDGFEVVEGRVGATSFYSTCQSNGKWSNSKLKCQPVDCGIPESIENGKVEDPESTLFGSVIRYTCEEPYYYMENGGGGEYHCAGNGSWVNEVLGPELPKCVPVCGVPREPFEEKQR
# T1 sequence (P09871 438-688 limits assumed): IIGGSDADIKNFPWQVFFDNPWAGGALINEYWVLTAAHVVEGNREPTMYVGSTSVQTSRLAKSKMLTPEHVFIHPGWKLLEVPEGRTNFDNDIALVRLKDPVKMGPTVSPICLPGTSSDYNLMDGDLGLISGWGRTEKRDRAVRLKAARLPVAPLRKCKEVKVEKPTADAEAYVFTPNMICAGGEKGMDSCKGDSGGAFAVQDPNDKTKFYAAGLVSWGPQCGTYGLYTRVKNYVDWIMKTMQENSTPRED
# Description: as §1
SMILES,Forssman [1],% Reduction Complement [2],036 (activity in wells) (shunt pathway),035 (activity in wells) [3],026 (activity in wells) (C1)
"O=C(Nc1cccc(C(=O)Nc2cc3c(O)cc(S(=O)(=O)O)cc3cc2S(=O)(=O)O)c1)Nc1cccc(C(=O)Nc2cc3c(O)cc(S(=O)(=O)O)cc3cc2S(=O)(=O)O)c1 [3,3'-[Ureylenebis (m-phenylenecarbonylimino)]bis[5-hydroxy-2,7-naphthalenedisulfonic acid]tetrasodium salt]",35,-31%,2,2,5
"Cc1ccc(C(=O)Nc2cc(S(=O)(=O)O)cc3cc(S(=O)(=O)O)cc(O)c23)cc1N [4-(3-Amino-p-toluamido)-5-hydroxy-2,7-naphthalenedisulfonic acid, disodium salt]",–,–,NEG,NEG,5
"Cc1cc(C(=O)Nc2cc(S(=O)(=O)O)cc3cc(S(=O)(=O)O)cc(O)c23)ccc1N [4-(4-Amino-m-toluamido)-5-hydroxy-2,7-naphthalenedisulfonic acid, disodium salt]",17,+12%,NEG,NEG,5
"Cc1ccc(N)cc1C(=O)Nc1cc(S(=O)(=O)O)cc2cc(S(=O)(=O)O)cc(O)c12 [4-(5-Amino-o-toluamido)-5-hydroxy-2,7-naphthalenedisulfonic acid, disodium salt]",–,–,NEG,NEG,2
"Cc1ccc(C(=O)Nc2cc(S(=O)(=O)O)cc3cc(S(=O)(=O)O)cc(O)c23)cc1[N+](=O)[O-] [4-Hydroxy-5-(3-nitro-p-toluamido)-2,7-naphthalenedisulfonic acid, disodium salt]",–,–,NEG,NEG,3
"Cc1cc(C(=O)Nc2cc(S(=O)(=O)O)cc3cc(S(=O)(=O)O)cc(O)c23)ccc1[N+](=O)[O-] [4-Hydroxy-5-(4-nitro-3-toluamido)-2,7-naphthalenedisulfonic acid, disodium salt]",48,-20%,NEG,NEG,2
"Cc1ccc([N+](=O)[O-])cc1C(=O)Nc1cc(S(=O)(=O)O)cc2cc(S(=O)(=O)O)cc(O)c12 [4-Hydroxy-5-(5-nitro-o-toluamido)-2,7-naphthalenedisulfonic acid, disodium salt]",10,-17%,NEG,NEG,2
"Cc1ccc(NC(=O)Nc2cccc(C(=O)Nc3cc(S(=O)(=O)O)cc4cc(S(=O)(=O)O)cc(O)c34)c2)cc1[N+](=O)[O-] [4-Hydroxy-5-m-[3-(3-nitro-p-tolyl)ureido]benzamido-2,7-naphthalenedisulfonic acid, disodium salt]",15,+46%,NEG,NEG,NEG
"O=C(Nc1cccc(C(=O)Nc2cc(S(=O)(=O)O)cc3cc(S(=O)(=O)O)cc(O)c23)c1)Nc1cccc(C(F)(F)F)c1 [4-Hydroxy-5-m-[3-(α,α,α-trifluoro-m-tolyl)ureido]benzamido-2,7-naphthalenedisulfonic acid, disodium salt]",5,-6%,NEG,NEG,1
"O=C(Nc1ccc(S(=O)(=O)F)cc1)Nc1cccc(C(=O)Nc2cc(S(=O)(=O)[O-])cc3cc(S(=O)(=O)[O-])cc(O)c23)c1.[Na+].[Na+] [4-{m-{3-[p-(Fluorosulfonyl)phenyl]ureido}benzamido}-5-hydroxy-2,7-naphthalenedisulfonic acid, disodium salt]",–,–,NEG,NEG,4
"O=C(Nc1cccc(C(=O)Nc2cc(S(=O)(=O)[O-])cc3cc(S(=O)(=O)[O-])cc(O)c23)c1)Nc1cccc(C(=O)Nc2cc(S(=O)(=O)[O-])cc3cc(S(=O)(=O)[O-])cc(O)c23)c1.[Na+].[Na+].[Na+].[Na+] [5,5'-[Ureylenebis(m-phenylenecarbonylimino)]bis[4-hydroxy-2,7-naphthalenedisulfonic acid] tetrasodium salt]",–,–,2,1,6
